Series [1] addresses Histone deacetylase 1 (Homo sapiens) (UniProt Q13547). In words: Inhibition of human HDAC1 at 1uM using RHKKAc as substrate by fluorescence method relative to control.
Series [2] can be described thus: Stability in human liver microsomes assessed as parent compound remaining measured after 30 mins. It is filed as ADME, Microsome. The following applies: liver microsomes, read-out: Stabilty.
Series [3] can be described thus: Stability in mouse liver microsomes assessed as parent compound remaining measured after 30 mins. It is filed as ADME, Microsome. Particulars: liver microsomes, read-out: Stabilty.
Series [4] has as its target T1, Protein deacetylase HDAC6 (Homo sapiens, UniProt Q9UBN7).
T1 sequence (Q9UBN7 whole entry): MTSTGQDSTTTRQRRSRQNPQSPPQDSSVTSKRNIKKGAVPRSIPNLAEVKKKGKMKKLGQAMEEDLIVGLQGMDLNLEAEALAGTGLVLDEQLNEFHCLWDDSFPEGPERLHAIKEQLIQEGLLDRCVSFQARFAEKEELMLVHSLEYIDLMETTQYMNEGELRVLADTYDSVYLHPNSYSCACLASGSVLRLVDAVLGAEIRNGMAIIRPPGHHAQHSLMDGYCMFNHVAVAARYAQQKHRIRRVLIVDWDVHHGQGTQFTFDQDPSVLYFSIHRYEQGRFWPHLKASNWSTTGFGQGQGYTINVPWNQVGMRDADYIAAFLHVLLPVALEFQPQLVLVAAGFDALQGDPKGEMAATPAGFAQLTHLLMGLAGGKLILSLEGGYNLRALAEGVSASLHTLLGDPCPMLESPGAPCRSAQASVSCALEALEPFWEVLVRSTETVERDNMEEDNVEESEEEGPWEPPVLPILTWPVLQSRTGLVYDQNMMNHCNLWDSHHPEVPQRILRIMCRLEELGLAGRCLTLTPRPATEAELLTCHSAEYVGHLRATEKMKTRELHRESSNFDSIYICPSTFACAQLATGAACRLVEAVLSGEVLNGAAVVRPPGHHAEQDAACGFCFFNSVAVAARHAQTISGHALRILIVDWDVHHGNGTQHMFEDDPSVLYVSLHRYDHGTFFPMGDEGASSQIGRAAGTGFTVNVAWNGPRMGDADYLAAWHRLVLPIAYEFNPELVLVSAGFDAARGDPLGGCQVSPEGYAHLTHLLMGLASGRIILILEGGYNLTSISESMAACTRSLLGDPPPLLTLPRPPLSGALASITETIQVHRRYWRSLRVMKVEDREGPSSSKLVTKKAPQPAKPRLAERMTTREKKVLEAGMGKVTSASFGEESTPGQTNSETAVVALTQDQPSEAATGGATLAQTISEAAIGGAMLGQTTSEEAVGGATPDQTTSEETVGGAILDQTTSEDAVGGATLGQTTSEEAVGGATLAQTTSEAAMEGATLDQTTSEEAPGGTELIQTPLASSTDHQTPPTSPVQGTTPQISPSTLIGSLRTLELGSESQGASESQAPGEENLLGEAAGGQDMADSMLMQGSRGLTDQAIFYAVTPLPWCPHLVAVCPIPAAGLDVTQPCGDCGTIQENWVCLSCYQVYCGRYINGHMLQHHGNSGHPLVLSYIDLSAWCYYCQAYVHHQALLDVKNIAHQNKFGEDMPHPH
Nature of the series: Inhibition of human HDAC6 (unknown origin) using RHKKAc as substrate by fluorescence method. Particulars: read-out: IC50.

The target in series [5] is Lysine-specific histone demethylase 1A (Homo sapiens, UniProt O60341). In words: Inhibition of LSD1 (unknown origin). The following applies: read-out: IC50.

Some results are limits rather than exact numbers.

Chain of Histone deacetylase 1 (Homo sapiens) (Q13547 whole entry): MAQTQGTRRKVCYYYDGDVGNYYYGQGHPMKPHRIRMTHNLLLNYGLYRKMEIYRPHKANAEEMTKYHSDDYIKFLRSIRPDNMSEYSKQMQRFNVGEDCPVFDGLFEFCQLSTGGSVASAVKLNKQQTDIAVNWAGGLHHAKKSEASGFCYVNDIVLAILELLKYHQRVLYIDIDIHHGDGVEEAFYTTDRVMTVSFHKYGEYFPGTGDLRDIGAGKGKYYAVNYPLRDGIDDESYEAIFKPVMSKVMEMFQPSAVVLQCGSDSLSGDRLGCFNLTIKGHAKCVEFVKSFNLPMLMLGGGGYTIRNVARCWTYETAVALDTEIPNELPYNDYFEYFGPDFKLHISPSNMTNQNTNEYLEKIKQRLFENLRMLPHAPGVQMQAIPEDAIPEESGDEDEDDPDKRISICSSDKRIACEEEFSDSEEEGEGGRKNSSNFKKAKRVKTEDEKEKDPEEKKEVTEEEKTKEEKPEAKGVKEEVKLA

Take `O=C(NO)c1ccc(CCCN2CCC(CN[C@H]3C[C@@H]3c3ccccc3)CC2)cc1`: in series [1], the inhibition stood at 2.06%.

Regarding `O=C(NO)c1ccc(CCCN2CCC(CN[C@H]3C[C@@H]3c3ccc(OCc4ccc(F)cc4)cc3)CC2)cc1` (racemic), the remaining at 0.5 h was determined as 79% in series [2] and 56% in series [3]. In series [1], the inhibition is -1.79%. Further, the IC50 is 12 nM in series [4] and 4 nM in series [5].

On to `COc1ccc([C@H]2C[C@@H]2NCC2CCN(CCCc3ccc(C(=O)NO)cc3)CC2)cc1` (racemic), for which the remaining at 0.5 h in series [2] was found to be 74%; in series [3] it was 91%. In series [1], the inhibition was 46.7%. Further, the results for the IC50 in series [4] and in series [5] were 38 nM and 6 nM, respectively.

In the case of `O=C(NO)c1ccc(CCCN2CCc3cc(CN[C@H]4C[C@@H]4c4ccc(F)cc4)ccc3C2)cc1` (racemic), the results for the remaining at 0.5 h in series [2] and in series [3] were 72% and 32%, respectively.

Turning to `COc1ccc([C@H]2C[C@@H]2NCc2cn3c(n2)CN(CCCc2ccc(C(=O)NO)cc2)CC3)cc1` (racemic), the remaining at 0.5 h in series [2] was 73%; in series [3], < 5%. The inhibition in series [1] stood at 26.6%. For the same compound, the IC50 in series [4] came out at 28 nM; in series [5], 1100 nM.

Regarding `N#Cc1ccc(-c2ccc([C@H]3C[C@@H]3NCC3CCN(CCCc4ccc(C(=O)NO)cc4)CC3)cc2)cc1` (racemic), the remaining at 0.5 h in series [2] came to 76%; in series [3] it was 75%. The IC50 in series [5] is 32 nM.

Consider `CN(C)CCNC(=O)c1ccc([C@H]2C[C@@H]2NCC2CCN(CCCc3ccc(C(=O)NO)cc3)CC2)cc1` (racemic), for which the remaining at 0.5 h in series [2] worked out at 40%; in series [3] it was 36%. Moreover, the inhibition in series [1] turned out to be 58.1%. Moreover, the IC50 in series [4] amounted to 130 nM; in series [5] it was 22 nM.

On to `O=C(NO)c1ccc(CCCN2CCC(CN[C@H]3C[C@@H]3c3ccc(C(=O)N4CCOCC4)cc3)CC2)cc1` (racemic), for which the values for the remaining at 0.5 h in series [2] and in series [3] were 89% and 82%, respectively. Also, the inhibition in series [1] amounted to 47.6%. Besides, in series [5], the IC50 turned out to be 22 nM.

With `O=C(NO)c1ccc(CCCN2CCC(CN[C@H]3C[C@@H]3c3ccc(-c4ccc(Cl)cc4)cc3)CC2)cc1` (racemic), the remaining at 0.5 h in series [2] is 77%; in series [3], 81%. For the same compound, the inhibition in series [1] amounted to 23.6%. Moreover, the IC50 in series [4] stood at 19 nM; in series [5] it was 2 nM.

For the compound `O=C(NO)c1ccc(CCCN2CCC(CN[C@H]3C[C@@H]3c3ccc(-c4ccc(F)cc4)cc3)CC2)cc1` (racemic), the remaining at 0.5 h in series [2] was 92%; in series [3], 75%. Further, the inhibition in series [1] came out at 9.74%. Besides, the IC50 in series [4] turned out to be 59 nM; in series [5] it was 821 nM.

With `O=C(NO)c1ccc(CCCN2CCC(CN[C@H]3C[C@@H]3c3ccc(C(=O)N4CCCCC4)cc3)CC2)cc1` (racemic), the remaining at 0.5 h in series [2] amounted to 65%; in series [3], 72%. Moreover, the inhibition in series [1] came to 53.9%. Besides, the IC50 in series [5] turned out to be 23 nM.

As to `O=C(NO)c1ccc(CN2CCC(CN[C@H]3C[C@@H]3c3ccccc3)CC2)cc1` (racemic), the remaining at 0.5 h in series [2] was 63%; in series [3] it was 53%. Also, the inhibition in series [1] was found to be 12.9%.

Take `O=C(NO)c1ccc(CCCN2CCC(CN[C@H]3C[C@@H]3c3ccc(-c4ccc(C(F)(F)F)nc4)cc3)CC2)cc1` (racemic): the remaining at 0.5 h in series [2] is 79%; in series [3], 85%. The inhibition in series [1] came out at 33.5%. Moreover, the IC50 in series [4] turned out to be 100 nM; in series [5], 19 nM.

For the compound `Cn1ccc(-c2ccc([C@H]3C[C@@H]3NCC3CCN(CCCc4ccc(C(=O)NO)cc4)CC3)cc2)cc1=O` (racemic), the remaining at 0.5 h came out at 73% in series [2] and 72% in series [3]. Further, the inhibition in series [1] was 59.4%. The IC50 in series [4] is 46 nM; in series [5] it was 21 nM.

The values above are taken from ChEMBL document CHEMBL4715885, “Novel dual LSD1/HDAC6 inhibitors for the treatment of multiple myeloma” (Bioorg Med Chem Lett, 2021).
